Where two headings read alike, the source gives them in different places.
Columns and labels:
Caco-2 cells = test: Cholesterol absorption inhibition assay (in vitro), [14C] cholesterol mixed micelles; format: cell-based; details: Homo sapiens, 24 hours, read-out: cholesterol absorption inhibitory activity; for inhibition at 12.5 µM: concentration of 12.5 μM; for inhibition at 10 µM: concentration of 10 μM
Procedure: This assay measures cholesterol absorption inhibitory activity by adding mixed micelles containing [^14C] cholesterol to cells and measuring cholesterol taken in the cells as oleic acid cholesteryl ester. The assay is conducted after Caco-2 cells are seeded on multi-well plates and cultured (culture medium: DMEM containing 10% fetal bovine serum, 1% non-essential amino acids, 1% penicillin, and 1% streptomycin) for 2 weeks. To each well, the micelle solution (in an amount required to provide the following final concentrations: 600 μM of sodium oleate, 50 μM of phosphatidyl choline, 5 mM of sodium taurocholate, 2.5 μM of cholesterol, and 2.5 μM of [^14C] cholesterol) and a test compound solution (in an amount required to provide the final concentration of 0.5 to 25 μM) or a solvent as a control are added, and incubation is started at 37° C. 24 hours later, the culture medium is removed, and the lipid component is extracted with hexane/2-propanol (3:2, v/v) and applied onto thin-layer silica gel plates. After drying, each plate is eluted with a mixture of hexane, diethyl ether, and acetic acid in a ratio of 83:16:1. The plates are photoexposed on imaging plates and analyzed using BAS-2500 (FUJIFILM). The amounts of light exposure of the areas corresponding to the cholesteryl ester are calculated. Background is measured using a blank space of the plate. Inhibition rates are calculated using values obtained by subtracting the background values from both values of the control and the test sample, respectively, in accordance with the following equation. A test value is calculated as a percentage (%) with respect to the control.
In the Equation 1, A is the control group, BG is a background, and B is the test compound.
The following results were obtained from the measurement by this method on cholesterol absorption inhibitory activity of the compounds of the present invention. The following results were obtained by the evaluation using concentrations of 10 μM and/or 12.5 μM.

[1] = test system: hamsters fed a high cholesterol diet; test: Measurement of lipid lowering effect in hamsters fed a high cholesterol diet; format: in vivo, Male Golden Syrian hamsters; details: Mesocricetus auratus, po, 168 h, gavage once daily, 7 days
Procedure: Male Golden Syrian hamsters are divided into groups each consisting of 6 animals and fed a controlled high cholesterol diet (CE-2 containing 0.5% cholesterol; CLEA Japan, Inc.) for 28 days at most. From the start of feeding of the high cholesterol diet, the test compounds are administered by gavage once daily. For the administration, 0.2 mL of corn oil alone per 100 g (control group) or a solution (or suspension) of the test compound in corn oil at a dose of 0.01 to 10 mg/kg was given. At the same time, a group fed with a normal diet during the same study period is handled as a normal group. 4 hours after the last administration, whole blood is collected from the abdominal aorta under light anesthesia with ether and serum is separated from the blood. Further, livers are harvested, wet liver weights are measured, and part (about 0.5 g) of the harvested livers are extracted and weighed. 2-propanol in an amount 4 times the weight of the extracted livers are added, the resulted mixtures are homogenized, and the centrifuged supernatant are recovered and used as liver-derived samples.
Serum and liver TC concentrations are determined by an enzyme method using L-type Wako CHO•H (Wako Pure Chemical Industries Ltd.) or Cholestest CHO (Daiichi Pure Chemicals Co., Ltd.). Serum TG concentrations are determined by an enzyme method using L-type Wako TG•H (Wako Pure Chemical Industries Ltd.) or Autosera S TG-N (Daiichi Pure Chemicals Co., Ltd.) and a free glycerine elimination method. LDL-C concentrations are determined by a direct method using L-type Wako LDL-C•M (Wako Pure Chemical Industries Ltd.) or Cholestest LDL (Daiichi Pure Chemicals Co., Ltd.). Human serum was commonly used as a sample for the calibration curve for determinations of serum and liver TC concentrations, serum TG concentration, and serum LDL-C concentration. The effect of the test compound is shown by a suppression rate (%) of an increase in serum TC concentration due to feeding of the high cholesterol diet, a serum TG lowering rate (%), a suppression rate (%) of an increase in serum LDL-C concentration due to feeding of the high cholesterol diet, and a suppression rate (%) of an increase in liver TC concentration due to feeding of the high cholesterol diet calculated in accordance with the following equations.
In the Equation 2, A is the control group, B is the test compound group, and C is the normal group.
In the Equation 3, A is the control group, B is the test compound group, and C is the normal group.
In the Equation 4, A is the control group, B is the test compound group, and C is the normal group.
In the Equation 5, A is the control group, and B is the test compound group.
The following results were obtained from the study by this method on the effects of lowering serum TC, LDL-C, and TG, and liver TC in the hamsters fed with a high cholesterol diet which were given the test compounds for 7 days.
The compounds in which pyridyl of compound of example 51 and 55 was exchanged for phenyl, were used as comparative compound 1 and 2, respectively. In the same method as Example 112, the suppression rate (%) of an increase in serum TC concentration of comparative compound 1 and 2 were calculated.

[2] = read-out: serum LDL-C lowering effect (suppression rate of an increase in serum LDL-C concentration)
[3] = read-out: serum TC lowering effect (suppression rate of an increase in serum TC concentration)
[4] = read-out: serum TG lowering effect (serum TG lowering rate)
[5] = read-out: liver TC lowering effect (suppression rate of an increase in liver TC concentration)

O=C1[C@H](SC[C@H](O)c2ccc(F)cc2)[C@@H](c2ccc(O)cc2)N1c1ccc(-c2cccnc2)cc1 [Example 1, (3R,4R)-3-[(2R)-2-(4-fluorophenyl)-2-hydroxyethylthio]-4-(4-hydroxyphenyl)-1[4-(pyridin-3-yl)phenyl]azetidin-2-one]
inhibition at 12.5 µM (Caco-2 cells): ≥ 60%

O=C1[C@H](SCCc2ccccc2)[C@@H](c2ccc(O)cc2)N1c1ccc(-c2cccnc2)cc1 [Example 4, (3R,4R)-4-(4-hydroxyphenyl)-3-(2-phenylethylthio)-1-[4-(pyridin-3-yl)phenyl]azetidin-2-one]
inhibition at 10 µM (Caco-2 cells): ≥ 50% | inhibition at 12.5 µM (Caco-2 cells): ≥ 60%

O=C1[C@H](SC[C@H](O)c2ccc(F)cc2)[C@@H](c2ccc(O)cc2)N1c1ccc(-c2ccncc2)cc1 [Example 11, (3R,4R)-3-[(2R)-2-(4-fluorophenyl)-2-hydroxyethylthio]-4-(4-hydroxyphenyl)-1-[4-(pyridin-4-yl)phenyl]azetidin-2-one]
inhibition at 10 µM (Caco-2 cells): ≥ 50%

O=C1[C@H](SC[C@H](O)c2ccc(F)cc2)[C@@H](c2ccc(O)cc2)N1c1ccc(-c2cccc3[nH]ccc23)cc1 [Example 13, (3R,4R)-3-[(2R)-2-(4-fluorophenyl)-2-hydroxyethylthio]-4-(4-hydroxyphenyl)-1-[4-(indol-4-yl)phenyl]azetidin-2-one]
inhibition at 10 µM (Caco-2 cells): ≥ 50%

COc1ccc(CS[C@H]2C(=O)N(c3ccc(-c4cccnc4)cc3)[C@@H]2c2ccc(O)cc2)cc1 [Example 19, (3R,4R)-4-(4-hydroxyphenyl)-3-[(4-methoxyphenyl)methylthio]-1-[4-(pyridin-3-yl)phenyl]azetidin-2-one]
inhibition at 10 µM (Caco-2 cells): ≥ 50%

O=C1[C@H](SC[C@H](O)c2ccc(F)cc2)[C@@H](c2ccc(O)cc2)N1c1ccc(-c2cccnc2F)cc1 [Example 21, (3R,4R)-3-[(2R)-2-(4-fluorophenyl)-2-hydroxyethylthio]-1-[4-(2-fluoropyridin-3-yl)phenyl]-4-(4-hydroxyphenyl)azetidin-2-one]
inhibition at 10 µM (Caco-2 cells): ≥ 50%

COc1cnccc1-c1ccc(N2C(=O)[C@H](SC[C@H](O)c3ccc(F)cc3)[C@H]2c2ccc(O)cc2)cc1 [Example 23, (3R,4R)-3-[(2R)-2-(4-fluorophenyl)-2-hydroxyethylthio]-4-(4-hydroxyphenyl)-1-[4-(3-methoxypyridin-4-yl)phenyl]azetidin-2-one]
inhibition at 10 µM (Caco-2 cells): ≥ 50%

O=C1[C@H](SC[C@H](O)c2ccc3c(c2)OCCO3)[C@@H](c2ccc(O)cc2)N1c1ccc(-c2cccnc2)cc1 [Example 29, (3R,4R)-3-[(2R)-2-(2H,3H-benzo[3,4-e]1,4-dioxin-6-yl)-2-hydroxyethylthio]-4-(4-hydroxyphenyl)-1-[4-(pyridin-3-yl)phenyl]azetidin-2-one]
inhibition at 10 µM (Caco-2 cells): ≥ 50%

O=C1[C@H](SC[C@H](O)c2ccc(F)cc2)[C@@H](c2ccc(O)cc2)N1c1ccc(-c2cccnc2)c(F)c1 [Example 36, (3R,4R)-3-[(2R)-2-(4-fluorophenyl)-2-hydroxyethylthio]-1-[3-fluoro-4-(pyridin-3-yl)phenyl]-4-(4-hydroxyphenyl)azetidin-2-one]
inhibition at 10 µM (Caco-2 cells): ≥ 50%

O=C1[C@H](SC[C@H](O)c2ccc(F)cc2)[C@@H](c2ccc(O)c(O)c2)N1c1ccc(-c2cccnc2)cc1 [Example 37, (3R,4R)-3-[(2R)-2-(4-fluorophenyl)-2-hydroxyethylthio]-4-(3,4-dihydroxyphenyl)-1-[4-(pyridin-3-yl)phenyl]azetidin-2-one]
inhibition at 10 µM (Caco-2 cells): ≥ 50%

O=C1[C@H](SC[C@H](O)c2ccc(F)cc2)[C@@H](c2ccc(O)c(Cl)c2)N1c1ccc(-c2cccnc2)cc1 [Example 39, (3R,4R)-3-[(2R)-2-(4-fluorophenyl)-2-hydroxyethylthio]-4-(3-chloro-4-hydroxyphenyl)-1-[4-(pyridin-3-yl)phenyl]azetidin-2-one]
inhibition at 10 µM (Caco-2 cells): ≥ 50%

Cc1cc(O)ccc1[C@@H]1[C@@H](SC[C@H](O)c2ccc(F)cc2)C(=O)N1c1ccc(-c2cncnc2)cc1 [Example 100, (3R,4R)-3-[(2R)-2-(4-fluorophenyl)-2-hydroxyethylthio]-4-(4-hydroxy-2-methylphenyl)-1-[4-(pyrimidin-5-yl)phenyl]azetidin-2-one]
inhibition in vivo at 0.1 mg/kg [1, 2]: ≥ 50% | inhibition in vivo at 0.1 mg/kg [1, 3]: ≥ 50% | inhibition in vivo at 0.1 mg/kg [1, 4]: ≥ 20%

COc1cc(Cl)ccc1[C@@H](O)CS[C@H]1C(=O)N(c2ccc(-c3cccnc3)cc2)[C@@H]1c1ccc(O)cc1 [Example 101, (3R,4R)-3-[(2R)-2-(4-chloro-2-methoxyphenyl)-2-hydroxyethylthio]-4-(4-hydroxyphenyl)-1-[4-(pyridin-3-yl)phenyl]azetidin-2-one]
inhibition in vivo at 0.1 mg/kg [1, 2]: ≥ 50% | inhibition in vivo at 0.1 mg/kg [1, 3]: ≥ 50%

Cc1cc(Cl)ccc1[C@@H](O)CS[C@H]1C(=O)N(c2ccc(-c3cccnc3)cc2)[C@@H]1c1ccc(O)cc1 [Example 102, (3R,4R)-3-[(2R)-2-(4-chloro-2-methylphenyl)-2-hydroxyethylthio]-4-(4-hydroxyphenyl)-1-[4-(pyridin-3-yl)phenyl]azetidin-2-one]
inhibition in vivo at 0.1 mg/kg [1, 5]: ≥ 50% | inhibition in vivo at 0.1 mg/kg [1, 2]: ≥ 50% | inhibition in vivo at 0.1 mg/kg [1, 3]: ≥ 50%

N#Cc1ncc(-c2ccc(N3C(=O)[C@H](SC[C@H](O)c4ccc(F)cc4)[C@H]3c3ccc(O)cc3)cc2)cn1 [Example 103, 5-(4-{(3R,4R)-3-[(2R)-2-(4-fluorophenyl)-2-hydroxyethylthio]-4-(4-hydroxyphenyl)-2-oxoazetidinyl}phenyl)pyrimidine-2-carbonitrile]
inhibition in vivo at 0.1 mg/kg [1, 4]: ≥ 20%

O=C1[C@H](SC[C@H](O)c2ccc(Cl)cc2)[C@@H](c2ccc(O)cc2)N1c1ccc(-c2cnccn2)cc1 [Example 104, (3R,4R)-3-[(2R)-2-(4-chlorophenyl)-2-hydroxyethylthio]-4-(4-hydroxyphenyl)-1-[4-(pyrazin-2-yl)phenyl]azetidin-2-one]
inhibition in vivo at 0.01 mg/kg [1, 2]: ≥ 30% | inhibition in vivo at 0.01 mg/kg [1, 3]: ≥ 30% | inhibition in vivo at 0.1 mg/kg [1, 5]: ≥ 50%

CCNC(=O)c1cncc(-c2ccc(N3C(=O)[C@H](SC[C@H](O)c4ccc(Cl)cc4)[C@H]3c3ccc(O)cc3)cc2)c1 [Example 106, N-ethyl-5-(4-{(3R,4R)-3-[(2R)-2-(4-chlorophenyl)-2-hydroxyethylthio]-4-(4-hydroxyphenyl)-2-oxoazetidinyl}phenyl)pyridine-3-carboxamide]
inhibition in vivo at 0.1 mg/kg [1, 2]: ≥ 50%

From patent US20100125059A1, “1-BIARYLAZETIDINONE DERIVATIVE” (Teijin Pharma Limited, priority 2007, published 2010)
